Source: US12594227B2, “Tetrapeptide and compositions comprising tetrapeptides” (THE BOOTS COMPANY PLC, priority 2020, dated 2026)
The star is where a group is joined. Palmitoyl = CCCCCCCCCCCCCCCC(=O)*

Tests used:
[1] = system: RAD23A; experiment: LC-MS/MS relative protein abundance in secretome/matrisome of HDFs: RAD23A; format: cell-based, human; conditions: 8 ppm peptide, seven-day culture
Method: (§1) Following incubation with the peptides, liquid chromatography tandem mass spectrometry (LC-MS/MS) was used to quantify the relative abundance differences between proteins identified in the secretome/matrisome, versus an untreated control. HDFs from a donor, plated at 50,000 cells per well, were cultured with either peptide dissolved in cell culture media to achieve a final concentration of 8 ppm or with media without any peptide as a negative control. Treated and control cells were tested in triplicate. The cells were cultured as normal for five days in serum-supplemented media and then for a further two days in serum-free media (seven-day culture in total). The cell media containing the secretome (the proteins secreted by the cell) and the ECM, decellularized by incubation with EDTA (ethylenediaminetetraacetic acid), containing the matrisome (the collection of ECM associated proteins) were collected. The combined secretome and the matrisome compartments were subsequently analysed by LC-MS/MS using the following protocol.
(§2) Proteins were denatured (in urea), reduced (in dithiothreitol) and mechanically disassociated (using ultrasonication) prior to overnight digestion with trypsin (SMART Digest™ trypsin kit; Thermo Fisher). After digestion, samples were cleaned of contaminants up by removal of organic molecules and surfactants using biphasic extraction and desalted using OLIGO™ R3 Reversed Phase Resin (Thermo Fisher).
(§3) Samples (200 ng) were ran on an UltiMate® 3000 Rapid Separation Liquid Chromatographer coupled to a Q Exactive™ Hybrid Quadrupole-Orbitrap™ Mass Spectrometer for 90-minutes per sample run. Spectral data was searched again the Uniprot Human proteome database using Mascot v2.5.1. Subsequent protein identification and data-dependent quantification was performed using Progenesis QI. Normalised protein abundances were compared between each peptide treatment and control. Statistical analysis was performed within Progenesis QI using a between sample ANOVA.
(§4) The mass spectrometry data for each peptide is shown below in table 3 and FIG. 1. […] These protein families were as follows: proteoglycans, UV DNA repair proteins, basement membrane protein and cell-adhesion proteins; functional protein families with a potentially important role in dermal repair and remodelling.
(§5) The results of the above mass spectrometry experiments wherein a range of tetrapeptides are applied to HDFs to elicit a response in the expression of dermal extracellular proteins are provided in table 3 below. The protein family which the protein belongs to is also shown. Mass spectrometry results using peptide sequences, according to the invention (column 1) and not according to the present invention (columns 2, 3 and 4), are also presented within the table for comparison.

[2] = system: CDH2; experiment: LC-MS/MS relative protein abundance in secretome/matrisome of HDFs: CDH2; format: cell-based, human; conditions: 8 ppm peptide, seven-day culture
Method: as §1, §2, §3, §4, §5

[3] = system: LGALS3; experiment: LC-MS/MS relative protein abundance in secretome/matrisome of HDFs: LGALS3; format: cell-based, human; conditions: 8 ppm peptide, seven-day culture
Method: as §1, §2, §3, §4, §5

[4] = system: CSPG2; experiment: LC-MS/MS relative protein abundance in secretome/matrisome of HDFs: CSPG2; format: cell-based, human; conditions: 8 ppm peptide, seven-day culture
Method: as §1, §2, §3, §4, §5

[5] = system: LAMB2; experiment: LC-MS/MS relative protein abundance in secretome/matrisome of HDFs: LAMB2; format: cell-based, human; conditions: 8 ppm peptide, seven-day culture
Method: as §1, §2, §3, §4, §5

[6] = system: NID1; experiment: LC-MS/MS relative protein abundance in secretome/matrisome of HDFs: NID1; format: cell-based, human; conditions: 8 ppm peptide, seven-day culture
Method: as §1, §2, §3, §4, §5

[7] = system: Fibrillin-1; experiment: Immunofluorescence of Fibrillin-1 fibre abundance in primary human dermal fibroblasts; format: cell-based; conditions: HDF cells, 5 days
Method: Immunofluorescence relies on the use of antibodies to label a specific protein with a fluorescent dye such as fluorescein isothiocyanate (FITC). In the following experiments, indirect immunofluorescence is used where a primary antibody first recognises and attaches to the specific protein, in this case fibrillin-1, and then a secondary antibody conjugated with FITC directed against the primary antibody is used for detection.
For all experiments, the control liquid stock was prepared by dissolving the powdered peptides in DMSO (Dimethyl Sulfoxide solvent). Peptide powders were dissolved in DMSO at recommended part per million concentrations and then further diluted in the cell culture medium and combined to obtain the desired peptide ratio.
Fibrillin-1 expression was determined using immunofluorescence. Primary human dermal fibroblast (I-IDF) cells were purchased from Promo Cell and came from a donor. […]
The antibody binding to Fibrillin-1 fibres was visualised using a Nikon Eclipse 100 microscope fluorescence setting using an excitation lens for fluorescein isothiocyanate (FITC). […] ImageJ software was used to quantify the Fibrillin-1 fibre abundance and coverage in each image using a threshold of 235 measuring the fibre density.
Results are expressed as a percentage increase in fibrillin abundance compared to untreated control. […]

[8] = system: Fibronectin; experiment: ELISA assay of fibronectin in culture supernatant of human dermal fibroblasts; format: cell-based; conditions: 5 ppm peptide; normal human dermal fibroblasts; 72 hours; ELISA weighted to viable cells
Method: (§6) An ELISA is an immunological assay commonly used to measure presence and abundance of a specific proteins (antibodies, antigens, proteins and glycoproteins) in biological samples. In this case ELISAs are being used to quantify the expression of dermal extracellular proteins collagen-1, decorin, and fibronectin. The quantity of collagen I is evaluated via the quantity of PIP (“carboxU-terminal pro-peptide of procollagen type I”) which is a peptide fragment resulting from the enzymatic degradation of procollagen present outside the fibroblast in the culture supernatant medium. […]
(§7) Normal human dermal fibroblasts cells (HDFs) were cultured in contact with the tetrapeptides of the present invention, or composition without the peptide (negative control), for 72 hours. Thereafter the cultured supernatants were removed, and the quantity of dermal extracellular proteins determined using an ELISA assay for the protein of interest. For the ELISA quantification, cell viability was calculated using Hoechst staining allowing the quantity of dermal proteins to be weighted to the number of viable cells.
(§8) The effect of the QTAV tetrapeptide on ECM protein expression by fibroblasts as measured by ELISA (column 1) versus tetrapeptide not conforming to the QTAV structure (column 2) are presented in the table below (table 1). Results are expressed as % increase versus the negative control.

[9] = system: Decorin; experiment: ELISA assay of decorin in culture supernatant of human dermal fibroblasts; format: cell-based; conditions: 5 ppm peptide; normal human dermal fibroblasts; 72 hours; ELISA weighted to viable cells
Method: as §6, §7, §8

[10] = system: Collagen 1 (PIP); experiment: ELISA assay of collagen I (via PIP) in culture supernatant of human dermal fibroblasts; format: cell-based; conditions: 5 ppm peptide; normal human dermal fibroblasts; 72 hours; ELISA weighted to viable cells
Method: as §6, §7
The quantity of collagen I is evaluated using the quantity of PIP (“carboxU-terminal pro-peptide of procollagen type I”) which is a peptide fragment resulting from the enzymatic degradation of procollagen present outside the fibroblast in the culture supernatant medium. […]

[11] = system: proteoglycans, UV DNA repair proteins, basement membrane protein and cell-adhesion proteins; experiment: LC-MS/MS protein families overview (bubble plot FIG. 1) in HDFs; format: cell-based, human; conditions: 8 ppm peptide, result in words
Method: as §1, with “protocol. […]” for “protocol.”
Samples (200 ng) were ran on an UltiMate® 3000 Rapid Separation Liquid Chromatographer coupled to a Q Exactive™ Hybrid Quadrupole-Orbitrap™ Mass Spectrometer for 90-minutes per sample run. […] Subsequent protein identification and data-dependent quantification was performed using Progenesis QI. […]

Substance	RAD23A (UV DNA repair) protein enhanced versus untreated control [1] [%]	CDH2 (Cell adhesion) protein enhanced versus untreated control [2] [%]	LGALS3 (Cell adhesion) protein enhanced versus untreated control [3] [%]	CSPG2 (Proteoglycans) protein enhanced versus untreated control [4] [%]	LAMB2 (Basement membrane) protein enhanced versus untreated control [5] [%]	NID1 (Basement membrane) protein enhanced versus untreated control [6]	Fibrillin-1, percentage increase in fibrillin abundance compared to untreated control ([7]; 10 ppm peptide)	Fibronectin, % increase versus the negative control [8]	Decorin, % increase versus the negative control [9]	Collagen 1 (PIP), % increase versus the negative control [10]	Fibrillin-1, percentage increase in fibrillin abundance compared to untreated control ([7]; 12.5 ppm peptide)	enhancement of protein families (proteoglycans, UV DNA repair proteins, basement membrane proteins, cell adhesion proteins) ([11]; FIG. 1 bubble plot)	protein synthesis in comparison to the control ([11]; HDFs, LC-MS/MS)
Pal-GPSG-OH	51	85	2	20	25	28%							
Pal-GYIL-OH							+3%	−23%	+2%	−4%			
Pal-LSPD-OH	5	39	5	5	40	27%							
Pal-LSPG-OH	94	10	24	<1	22	6.60%^							
Pal-QTAV-OH (Palmitoyl-QTAV-OH; SMILES CCCCCCCCCCCCCCCC(=O)N[C@@H](CCC(N)=O)C(=O)N[C@H](C(=O)N[C@@H](C)C(=O)N[C@H](C(=O)O)C(C)C)[C@@H](C)O) [palmitoyl tetrapeptide Gln-Thr-Ala-Val with free C-terminal OH, according to the invention]	230	69	32	31	27	32%		+87%	+33%	+59%	+84%	the only sequence to significantly enhance	overall enhancement of protein synthesis
